Measured values: BindingDB's records for doi:10.1021/jm051146h (Conforma Therapeutics, 2006)

Biological target: Heat shock protein HSP 90-beta (Homo sapiens, UniProt P08238)
Assay: Her-2 Degradation Assay
Settings: not given
Protocol: A fluorescence histogram was generated, and the mean fluorescence intensity (MFI) of each sample was determined using Cellquest software.

Heat shock protein HSP 90-beta, sequence (P08238 whole entry): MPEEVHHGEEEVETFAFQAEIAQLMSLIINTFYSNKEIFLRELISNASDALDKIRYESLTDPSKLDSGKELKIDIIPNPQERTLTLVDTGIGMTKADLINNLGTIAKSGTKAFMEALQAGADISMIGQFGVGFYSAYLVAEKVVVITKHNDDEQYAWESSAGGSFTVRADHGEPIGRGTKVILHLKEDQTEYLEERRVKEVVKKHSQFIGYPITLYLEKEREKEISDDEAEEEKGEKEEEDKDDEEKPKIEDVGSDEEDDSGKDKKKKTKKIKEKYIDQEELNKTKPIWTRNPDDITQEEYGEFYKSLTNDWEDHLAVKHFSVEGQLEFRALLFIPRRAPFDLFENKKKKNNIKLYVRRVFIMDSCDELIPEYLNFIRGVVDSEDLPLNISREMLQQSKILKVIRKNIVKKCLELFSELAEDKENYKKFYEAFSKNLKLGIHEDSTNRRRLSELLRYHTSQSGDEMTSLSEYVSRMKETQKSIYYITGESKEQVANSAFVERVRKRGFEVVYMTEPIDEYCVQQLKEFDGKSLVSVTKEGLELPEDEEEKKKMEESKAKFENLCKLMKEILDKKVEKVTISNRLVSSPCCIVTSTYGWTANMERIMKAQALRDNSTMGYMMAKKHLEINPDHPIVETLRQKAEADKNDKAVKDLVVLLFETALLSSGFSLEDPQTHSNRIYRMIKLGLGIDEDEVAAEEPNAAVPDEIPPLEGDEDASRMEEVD

Row | SMILES | EC50 [µM]
1 | CC(C)NCCCn1c(Sc2nc3cccc(Cl)c3s2)nc2c(N)ncnc21 [8-[(7-chloro-1,3-benzothiazol-2-yl)sulfanyl]-9-[3-(propan-2-ylamino)propyl]-9H-purin-6-amine] | 0.17
2 | CCCCn1c(Sc2nc3cncc(Br)c3s2)nc2c(N)ncnc21 [8-({7-bromopyrido[3,4-d][1,3]thiazol-2-yl}sulfanyl)-9-butyl-9H-purin-6-amine] | 0.4
3 | CC(C)(C)NCCCn1c(Sc2nc3cccc(Cl)c3s2)nc2c(N)ncnc21 [9-[3-(tert-butylamino)propyl]-8-[(7-chloro-1,3-benzothiazol-2-yl)sulfanyl]-9H-purin-6-amine] | 0.15
4 | CCCCn1c(Sc2nc3cncc(Cl)c3s2)nc2c(N)ncnc21 [9-butyl-8-({7-chloropyrido[3,4-d][1,3]thiazol-2-yl}sulfanyl)-9H-purin-6-amine] | 0.28
5 | CC(C)(C)CNCCn1c(Sc2nc3cccc(Cl)c3s2)nc2c(N)ncnc21 | 0.035
6 | Nc1ncnc2c1nc(Sc1nc3cccc(Cl)c3s1)n2CCNC1CC1 [8-[(7-chloro-1,3-benzothiazol-2-yl)sulfanyl]-9-[2-(cyclopropylamino)ethyl]-9H-purin-6-amine] | 0.11
7 | CC(=O)OCCCn1c(Sc2nc3cncc(Cl)c3s2)nc2c(N)ncnc21 [3-[6-amino-8-({7-chloropyrido[3,4-d][1,3]thiazol-2-yl}sulfanyl)-9H-purin-9-yl]propyl acetate] | 0.17
8 | CC(C)(C)NCCn1c(Sc2nc3cccc(Cl)c3s2)nc2c(N)ncnc21 [9-[2-(tert-butylamino)ethyl]-8-[(7-chloro-1,3-benzothiazol-2-yl)sulfanyl]-9H-purin-6-amine] | 0.14

Same assay, conditions: pH 7.2; 37 °C

Row | SMILES | EC50 [µM]
9 | CCCn1c(Sc2nc3cccc(Cl)c3s2)nc2c(N)ncnc21 [8-[(7-chloro-1,3-benzothiazol-2-yl)sulfanyl]-9-propyl-9H-purin-6-amine] | 0.25
10 | Nc1ncnc2c1nc(Sc1nc3cccc(Cl)c3s1)n2CCCCO [4-{6-amino-8-[(7-chloro-1,3-benzothiazol-2-yl)sulfanyl]-9H-purin-9-yl}butan-1-ol] | 0.15
11 | CCCCn1c(Sc2nc3cccc(C)c3s2)nc2c(N)ncnc21 [9-butyl-8-[(7-methyl-1,3-benzothiazol-2-yl)sulfanyl]-9H-purin-6-amine] | 0.3
12 | CC(=O)OCCn1c(Sc2nc3cccc(Cl)c3s2)nc2c(N)ncnc21 [2-{6-amino-8-[(7-chloro-1,3-benzothiazol-2-yl)sulfanyl]-9H-purin-9-yl}ethyl acetate] | 0.15
13 | CCCCn1c(Sc2nc3ccc(Cl)cc3s2)nc2c(N)ncnc21 [9-butyl-8-[(6-chloro-1,3-benzothiazol-2-yl)sulfanyl]-9H-purin-6-amine] | 7
14 | Nc1ncnc2c1nc(Sc1nc3cccc(Cl)c3s1)n2CCO [2-{6-amino-8-[(7-chloro-1,3-benzothiazol-2-yl)sulfanyl]-9H-purin-9-yl}ethan-1-ol] | 0.3
15 | CCn1c(Sc2nc3cccc(Cl)c3s2)nc2c(N)ncnc21 [8-[(7-chloro-1,3-benzothiazol-2-yl)sulfanyl]-9-ethyl-9H-purin-6-amine] | 0.2
16 | CCCCn1c(Sc2nc3cccc(F)c3s2)nc2c(N)ncnc21 [9-butyl-8-[(7-fluoro-1,3-benzothiazol-2-yl)sulfanyl]-9H-purin-6-amine] | 0.2
17 | N#CCCCCn1c(Sc2nc3cccc(Cl)c3s2)nc2c(N)ncnc21 [5-{6-amino-8-[(7-chloro-1,3-benzothiazol-2-yl)sulfanyl]-9H-purin-9-yl}pentanenitrile] | 0.11
18 | CCCCn1c(Sc2nc3cccc(OC)c3s2)nc2c(N)ncnc21 [9-butyl-8-[(7-methoxy-1,3-benzothiazol-2-yl)sulfanyl]-9H-purin-6-amine] | 0.19
19 | Nc1ncnc2c1nc(Sc1nc3cccc(Cl)c3s1)n2CCN1CCOCC1 [8-[(7-chloro-1,3-benzothiazol-2-yl)sulfanyl]-9-[2-(morpholin-4-yl)ethyl]-9H-purin-6-amine] | 0.25
20 | CCCCn1c(Sc2nc3c(Cl)cccc3s2)nc2c(N)ncnc21 [9-butyl-8-[(4-chloro-1,3-benzothiazol-2-yl)sulfanyl]-9H-purin-6-amine] | 15
21 | CCCCn1c(Sc2nc3cccc(Cl)c3s2)nc2c(N)ncnc21 | 0.18
22 | CCCCn1c(Sc2nc3ccc(Cl)c(Cl)c3s2)nc2c(N)ncnc21 [9-butyl-8-[(6,7-dichloro-1,3-benzothiazol-2-yl)sulfanyl]-9H-purin-6-amine] | 25
23 | Nc1ncnc2c1nc(Sc1nc3cccc(Cl)c3s1)n2CCCO [3-{6-amino-8-[(7-chloro-1,3-benzothiazol-2-yl)sulfanyl]-9H-purin-9-yl}propan-1-ol] | 0.15
24 | CC(=O)OCCCn1c(Sc2nc3cccc(Cl)c3s2)nc2c(N)ncnc21 [3-{6-amino-8-[(7-chloro-1,3-benzothiazol-2-yl)sulfanyl]-9H-purin-9-yl}propyl acetate] | 0.09
25 | CCCCn1c(Sc2nc3ccccc3s2)nc2c(N)ncnc21 [8-(1,3-benzothiazol-2-ylsulfanyl)-9-butyl-9H-purin-6-amine] | 5
26 | CCCCCn1c(Sc2nc3cccc(Cl)c3s2)nc2c(N)ncnc21 [8-[(7-chloro-1,3-benzothiazol-2-yl)sulfanyl]-9-pentyl-9H-purin-6-amine] | 0.7
27 | CC(=O)OCCCCn1c(Sc2nc3cccc(Cl)c3s2)nc2c(N)ncnc21 [4-{6-amino-8-[(7-chloro-1,3-benzothiazol-2-yl)sulfanyl]-9H-purin-9-yl}butyl acetate] | 0.13
28 | CCCCn1c(Sc2nc3cccc(OCC)c3s2)nc2c(N)ncnc21 [9-butyl-8-[(7-ethoxy-1,3-benzothiazol-2-yl)sulfanyl]-9H-purin-6-amine] | 100
29 | CCCCn1c(Sc2nc3cccc(Br)c3s2)nc2c(N)ncnc21 [8-[(7-bromo-1,3-benzothiazol-2-yl)sulfanyl]-9-butyl-9H-purin-6-amine] | 0.33
